Data published in patent publication US7189858B2, “N-phenyl substituted carbamoyloxyalkyl-azolium derivatives” (Basilea Pharmaceutica AG, priority 1999, dated 2007).
Where two headings read alike, the source gives them in different places.

Assays:
[1] = rat
[2] = Solubility (Table 1); details: solvent a = distilled water
[3] = system: C. tropicalis CY5042; test: Rat systemic mycosis, C. tropicalis CY5042; assay type: in vivo; details: for ED50: Candida tropicalis, CY5042, 336 h, read-out: Rat systemic mycosis ED50 on day 14, C. tropicalis CY5042
[4] = system: A. fumigatus CF1003; test: Rat systemic mycosis, A. fumigatus CF1003; assay type: in vivo; details: for ED50: Aspergillus fumigatus, CF1003, 336 h, read-out: Rat systemic mycosis ED50 on day 14, A. fumigatus CF1003
Source text: (§1) Male Fisher rats, strain F344/DuCrj, were employed for experimental infection models such as systemic candidiasis, systemic aspergillosis and pulmonary aspergillosis model. Immunocompetent 4 weeks old rats were used for systemic candidiasis or systemic aspergillosis which occurred after infection with Candida albicans conidia of 5×10^6/rat or with Aspergillus fumigatus conidia of 6×10^5/rat via tail vein. Otherwise for pulmonary aspergillosis model, rats had been immunosuppressed with cortisone acetate treatments prior to infection with 2×10^5/rat intratrachially. Treatments were given twice on the first day and once daily on following 4 days both for systemic and pulmonary aspergillosis (Ib.i.+4q.d.), for systemic candidiasis rats were treated at 0, 4, 24, and 48 h after infection (Ib.i.d.+2q.d.). Effective dose 50% (ED50) values were determined on day 14 after infection.

[5] = system: Candida albicans; test: Rat systemic candidiasis model (Fluconazole resistance); assay type: in vivo; details: day 14 after infection
Source text: as §1

[6] = system: FCZ^R - C. albicans UTHS93-2067; test: Rat systemic mycosis, FCZ^R C. albicans UTHS93-2067; assay type: in vivo; details: for ED50: Candida albicans, 336 h, read-out: Rat systemic mycosis ED50 on day 14, FCZ^R - C. albicans UTHS93-2067
Source text: as §1

[7] = system: C. albicans CY1002; test: Rat systemic mycosis, C. albicans CY1002; assay type: in vivo; details: for ED50: Candida albicans, CY1002, 336 h, read-out: Rat systemic mycosis ED50 on day 14, C. albicans CY1002
Source text: as §1

[8] = system: C. parapsilosis KULM219C; test: Rat systemic mycosis, C. parapsilosis KULM219C; assay type: in vivo; details: for ED50: Lodderomyces parapsilosis, KULM219C, 336 h, read-out: Rat systemic mycosis ED50 on day 14, C. parapsilosis KULM219C
[9] = system: Aspergillus fumigatus; test: Rat systemic aspergillosis model; assay type: in vivo; details: day 14 after infection
Source text: as §1

[10] = system: C. albicans CY3003; test: Rat systemic mycosis, C. albicans CY3003; assay type: in vivo; details: for ED50: Candida albicans, CY3003, 336 h, read-out: Rat systemic mycosis ED50 on day 14, C. albicans CY3003
Source text: as §1

[11] = assay type: in vitro ADME; details: human

Q: With `CC(=O)OCc1ccccc1N(C)C(=O)OC[n+]1cnn(C[C@](O)(c2cc(F)ccc2F)[C@@H](C)c2nc(-c3ccc(C#N)cc3)cs2)c1.[Cl-]` [Example 5, [[N-methyl-N-2-(acetoxymethyl)phenyl]carbamoyloxy]methyl-1-[(2R,3R)-2-(2,5-difluorophenyl)-2-hydroxy-3-[4-(4-cyanophenyl)thiazol-2-yl]butyl]-1H-[1,2,4]triazol-4-ium chloride] as the compound, how does the “Conversion (half-life) to (2R,3R)-3-[4-(4-cyanophenyl)thiazol-2-yl)]-2-(2,5-difluorophenyl)-1-(1H-1,2,4-triazol-1-yl)-butan-2-ol (u) in plasma” value (shortened to “Conversion (half-life)”) [1] read?
A: <2 min in rat plasma

Q: With `CC(C)NCc1ccccc1N(C)C(=O)OC(C)[n+]1cnn(C[C@](O)(c2cc(F)ccc2F)[C@@H](C)c2nc(-c3ccc(C#N)cc3)cs2)c1.Cl.[Cl-]` (stereo partly drawn) [Example 6, 1-[[N-methyl-N-2-(isopropylaminomethyl)phenyl]carbamoyloxy]ethyl-1-[(2R,3R)-2-(2,5-difluorophenyl)-2-hydroxy-3-[4-(4-cyanophenyl)thiazol-2-yl]butyl]-1H-[1,2,4]triazol-4-ium chloride hydrochloride] as the compound, how does the “Solubility” value [2] read?
A: >10000 µg/mL

Q: Which “Rat systemic mycosis ED50 on day 14, C. tropicalis CY5042” value ([3]; I.V.) does the source give for `CNCC(=O)OCc1cccnc1N(C)C(=O)OC(C)[n+]1cnn(C[C@](O)(c2cc(F)ccc2F)[C@@H](C)c2nc(-c3ccc(C#N)cc3)cs2)c1.Cl.[Cl-]` (stereo partly drawn) [Example 7, 1-[[N-methyl-N-3-[(methylamino)acetoxymethyl]pyridin-2-yl]carbamoyloxy)ethyl-1-[(2R,3R)-2-(2,5-difluorophenyl)-2-hydroxy-3-[4-(4-cyanophenyl)thiazol-2-yl]butyl]-1H-[1,2,4]triazol-4-ium chloride hydrochloride] here?
A: 1 µmol/kg

Q: What about the “Rat systemic mycosis ED50 on day 14, C. tropicalis CY5042” value ([3]; PO.) of the same compound?
A: 1 µmol/kg

Q: And the “Rat systemic mycosis ED50 on day 14, A. fumigatus CF1003” value ([4]; I.V.)?
A: 11 µmol/kg

Q: What about the “Rat systemic mycosis ED50 on day 14, A. fumigatus CF1003” value ([4]; PO.) of the same compound?
A: 9 µmol/kg

Q: And the “ED50, Systemic Fluconazole resistance candidiasis” value ([5]; i.v.)?
A: 13.3 µmol/kg

Q: What about the “ED50, Systemic Fluconazole resistance candidiasis” value ([5]; p.o.) of the same compound?
A: 14.1 µmol/kg

Q: And the “Rat systemic mycosis ED50 on day 14, FCZ^R - C. albicans UTHS93-2067” value ([6]; I.V.)?
A: 2.8 µmol/kg

Q: And the “Rat systemic mycosis ED50 on day 14, FCZ^R - C. albicans UTHS93-2067” value ([6]; PO.)?
A: 7 µmol/kg

Q: What about the “Rat systemic mycosis ED50 on day 14, C. albicans CY1002” value ([7]; I.V.) of the same compound?
A: 4 µmol/kg

Q: What about the “Rat systemic mycosis ED50 on day 14, C. albicans CY1002” value ([7]; PO.) of the same compound?
A: 4 µmol/kg

Q: What about the “Rat systemic mycosis ED50 on day 14, C. parapsilosis KULM219C” value ([8]; I.V.) of the same compound?
A: 7.6 µmol/kg

Q: And the “Rat systemic mycosis ED50 on day 14, C. parapsilosis KULM219C” value ([8]; PO.)?
A: 6.5 µmol/kg

Q: And the “ED50, Systemic aspergillosis” value ([9]; i.v.)?
A: 13.5 µmol/kg

Q: And the “ED50, Systemic aspergillosis” value ([9]; p.o.)?
A: 8.8 µmol/kg

Q: And the “Rat systemic mycosis ED50 on day 14, C. albicans CY3003” value ([10]; I.V.)?
A: 1.6 µmol/kg

Q: And the “Rat systemic mycosis ED50 on day 14, C. albicans CY3003” value ([10]; PO.)?
A: 2.5 µmol/kg

Q: What about the “Conversion (half-life)” value [11] of the same compound?
A: <2 min in human plasma

Q: For `CNCC(=O)OCc1cc(F)c(F)cc1N(C)C(=O)OC(C)[n+]1cnn(C[C@](O)(c2cc(F)ccc2F)[C@@H](C)c2nc(-c3ccc(C#N)cc3)cs2)c1.Cl.[Cl-]` (stereo partly drawn) [Example 7.3., 1-[[N-methyl-N-2-(methylamino)acetoxymethyl-4,5-difluorophenyl]carbamoyloxy]ethyl-1-[(2R,3R)-2-(2,5-difluorophenyl)-2-hydroxy-3-[4-(4-cyanophenyl)thiazol-2-yl]butyl]-1H-[1,2,4]triazol-4-ium chloride hydrochloride], which “Conversion (half-life)” value [11] is on record?
A: 6 min in human plasma

Q: Which “Conversion (half-life)” value [11] does the source give for `CNCC(=O)OCc1cc(F)ccc1N(C)C(=O)OC(C)[n+]1cnn(C[C@](O)(c2cc(F)ccc2F)[C@@H](C)c2nc(-c3ccc(C#N)cc3)cs2)c1.Cl.[I-]` (stereo partly drawn) [Example 7.4., 1-[[N-methyl-N-2-(methylamino)acetoxymethyl-4-fluoro-phenyl]carbamoyloxy]ethyl-1-[(2R,3R)-2-(2,5-difluorophenyl)-2-hydroxy-3-[4-(4-cyanophenyl)thiazol-2-yl]butyl]-1H-[1,2,4]triazol-4-ium iodide hydrochloride] here?
A: 2 min in human plasma

Q: With `CNCC(=O)OCc1ccc(Cl)cc1N(C)C(=O)OC(C)[n+]1cnn(C[C@](O)(c2cc(F)ccc2F)[C@@H](C)c2nc(-c3ccc(C#N)cc3)cs2)c1.Cl.[I-]` (stereo partly drawn) [Example 7.10., 1-[[N-methyl-N-2-(methylamino)acetoxymethyl-5-chloro-phenyl]carbamoyloxy]ethyl-1-[(2R,3R)-2-(2,5-difluorophenyl)-2-hydroxy-3-[4-(4-cyanophenyl)thiazol-2-yl]butyl]-1H-[1,2,4]triazol-4-ium iodide hydrochloride] as the compound, how does the “Conversion (half-life)” value [11] read?
A: 3 min in human plasma

Q: Which “Conversion (half-life)” value [11] does the source give for `CNCC(=O)OCc1c(F)cccc1N(C)C(=O)OC(C)[n+]1cnn(C[C@](O)(c2cc(F)ccc2F)[C@@H](C)c2nc(-c3ccc(C#N)cc3)cs2)c1.Cl.[Cl-]` (stereo partly drawn) [Example 7.13., 1-[[N-methyl-N-2-(methylamino)acetoxymethyl-3-fluoro-phenyl]carbamoyloxy]ethyl-1-[(2R,3R)-2-(2,5-difluorophenyl)-2-hydroxy-3-[4-(4-cyanophenyl)thiazol-2-yl]butyl]-1H-[1,2,4]triazol-4-ium chloride hydrochloride] here?
A: 2 min in human plasma

Q: Which ED50 ([3]; PO.) does the source give for `OC(Cn1cncn1)(Cn1cncn1)c1ccc(F)cc1F` [Fluconazole, reference compound] here?
A: 2 µmol/kg

Q: And the ED50 ([4]; PO.)?
A: 94 µmol/kg

Q: What about the ED50 ([5]; Candida albicans, po, 336 h, p.o.) of the same compound?
A: 21.8 µmol/kg

Q: And the ED50 ([6]; PO.)?
A: 8.1 µmol/kg

Q: And the ED50 ([7]; PO.)?
A: 1.9 µmol/kg

Q: And the ED50 ([8]; PO.)?
A: 17 µmol/kg

Q: What about the ED50 ([10]; PO.) of the same compound?
A: 1 µmol/kg

Q: What does the source list for `CCC(C)n1ncn(-c2ccc(N3CCN(c4ccc(OCC5COC(Cn6cncn6)(c6ccc(Cl)cc6Cl)O5)cc4)CC3)cc2)c1=O` (stereo not shown) [Itraconazole, 4-[4-[4-[4-[[2-(2,4-Dichlorophenyl)-2-(1H-1,2,4-triazol-1-ylmethyl)-1,3-dioxolan-4-yl]methoxy]phenyl]-1-piperazinyl]phenyl]-2,4-dihydro-2-(1-methylpropyl)-3H-[1,2,4]triazol-3-one, reference compound]?
A: ED50 ([3]; PO.): 2 µmol/kg; ED50 ([4]; PO.): 8.9 µmol/kg; ED50 ([6]; PO.): 4.2 µmol/kg; ED50 ([7]; PO.): 4.7 µmol/kg; ED50 ([8]; PO.): 20 µmol/kg; ED50 ([9]; Aspergillus fumigatus, po, 336 h, p.o.): 4.9 µmol/kg; ED50 ([10]; PO.): 2.3 µmol/kg
